For the experiment, the target named is Glycogen synthase kinase-3 alpha (Homo sapiens) (UniProt P49840). The experiment is described as follows: concentration-response blocking of human GSK3A – biochemical, luminescence, cell-free homogeneous, retest, dose response (AID 463203). The conditions noted are these: GSK-3 alpha enzyme, ADP-Glo luminescence, 60 min. (In ADP-Glo the light output rises with the ADP produced.)

The source made the active and inactive calls.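 How the source made its calls: active means more than half of replicate measurements showing over 20% loss of kinase signal relative to plate controls; inconclusive means some but at most half of replicates over 20% loss; inactive means no replicate over 20% signal loss.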

For orientation: AC50 means the concentration at which the activity in the assay is half-maximal.

Sequence of Glycogen synthase kinase-3 alpha (Homo sapiens) (P49840 whole entry, looked up): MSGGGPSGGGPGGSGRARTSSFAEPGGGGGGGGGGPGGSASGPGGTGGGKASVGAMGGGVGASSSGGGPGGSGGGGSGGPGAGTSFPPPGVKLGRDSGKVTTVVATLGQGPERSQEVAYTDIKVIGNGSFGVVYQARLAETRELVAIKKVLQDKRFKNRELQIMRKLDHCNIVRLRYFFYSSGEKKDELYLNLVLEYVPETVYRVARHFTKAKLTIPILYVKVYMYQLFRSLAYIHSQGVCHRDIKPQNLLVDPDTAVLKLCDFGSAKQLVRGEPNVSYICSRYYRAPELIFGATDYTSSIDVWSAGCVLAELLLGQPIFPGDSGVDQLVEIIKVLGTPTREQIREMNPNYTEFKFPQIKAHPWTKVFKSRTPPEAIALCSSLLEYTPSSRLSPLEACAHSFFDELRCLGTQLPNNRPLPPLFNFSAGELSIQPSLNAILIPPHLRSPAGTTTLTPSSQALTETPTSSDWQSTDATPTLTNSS

For `CC(=O)C(Sc1ccc2nnc(-c3ccncc3)n2n1)C(C)=O`, the AC50 is > 30 µM (inactive).

On to `Cc1ccc(/C=N/NC(=O)c2nnn(-c3nonc3N)c2-c2cccs2)cc1`, for which the half-maximal activity concentration (AC50) was 1.04 µM. Consider `COc1ccccc1N=c1oc2cc(O)ccc2cc1C(=O)NCC1CCCO1` (configuration not stated), for which the AC50 is > 30 µM (inactive). The result for `COc1ccc(OCc2nc(N)nc(Nc3ccc(C)cc3)n2)cc1` reads > 30 µM (inactive). The result for `COC(=O)CNc1nc(Cl)nc(NC2CCCCC2)n1` reads > 30 µM (inactive); that for `COc1ccc(CC(=O)NCCc2cnc[nH]2)cc1`, > 30 µM (inactive); that for `COc1ccc(CCNc2ccc(S(=O)(=O)N3CCCC3)cc2[N+](=O)[O-])cc1`, > 30 µM (inactive).

Consider `Cc1ccnc(NC(=O)CN2C(=O)c3ccccc3S2(=O)=O)c1`, for which the AC50 is > 30 µM (inactive). The result for `CC(=O)Oc1ccc(C(=O)c2ccccc2)c(OC(C)=O)c1` reads > 30 µM (inactive); that for `OCC1OC(n2cnc3c(NCCc4ccccc4)ncnc32)C(O)C1O` (configuration not stated), > 30 µM (inactive); that for `O=C(NCC1CCN(Cc2ccccc2Cl)CC1)Nc1cccc(Cl)c1`, > 30 µM (inactive). The result for `O=C(O)C1CCCC[C@H]1C(=O)Nc1ncc([N+](=O)[O-])s1` (some centres not stated) reads > 30 µM (inactive); that for `CCN(CC)C(=O)c1ccc(NC(=O)Nc2ccccc2F)cc1`, 26.5 µM. On to `O=C(Nc1cccc(C(=O)NC2CCCCC2)c1)c1ccccc1`, for which the AC50 is > 30 µM (inactive).

Regarding `CCn1c(=O)[nH]c(=O)c2c(N)c(C(=O)c3cc(F)ccc3F)sc21`, the AC50 is 10.4 µM.

Take `O=C(COC(=O)c1cccc(S(=O)(=O)N2CCOCC2)c1)Nc1ncc(Cl)cc1Cl`: the AC50 was > 30 µM (inactive). The value for `CCOc1ccc(N=C2NC(=O)SC2CC(=O)OC)cc1` (configuration not stated) was > 30 µM (inactive); that for `N#C/C(=N\Nc1c(Cl)cccc1Cl)C(=O)NN` was 5.86 µM. The value for `CN(C)c1cccc(C(=O)N/N=C/c2ccccc2F)c1` was > 30 µM (inactive); that for `CC(C)(C)C(=O)/C=c1\[nH]c(=O)/c(=C\c2ccc(F)cc2)s1` was 11.9 µM. The result for `FC(F)(F)c1nnc2n1N=C(c1cccs1)CS2` reads > 30 µM (inactive). As for `CN1/C(=C/C=C(C#N)C#N)C(C)(C)c2ccccc21`, the AC50 is > 30 µM (inactive). Take `COc1ccc(N=Cc2c(O)[nH]c3ccccc23)cc1OC`: the half-maximal activity concentration (AC50) was 20.3 µM. The value for `COc1ccc2ccccc2c1/C=N/NC(=O)c1sc(N)c(C#N)c1C` was 25.3 µM; that for `CC(=NCCO)c1c(O)n(C2CCCCC2)c(=O)[nH]c1=O` was 26.9 µM; that for `CCOC(=O)c1cc(C(=O)OCC)c2cc(Br)ccc2n1` was > 30 µM (inactive). The result for `CCCCc1ccc(NC(=O)N[C@@H](C)C(=O)O)cc1` reads > 30 µM (inactive); that for `COc1ccc(-c2cc(=O)c3c(O)cc(O)cc3o2)cc1`, 4.21 µM; that for `COc1ccccc1C(CNc1ccc(S(=O)(=O)N2CCCC2)cc1[N+](=O)[O-])N(C)C` (configuration not stated), > 30 µM (inactive). The result for `C[C@H]1CCCC(=O)CCCCCc2cc(O)cc(O)c2C(=O)O1` reads 28.3 µM; that for `Cc1nc2ncnn2c(C)c1Cc1ccccc1Cl`, > 30 µM (inactive). For the molecule `Cc1ccccc1NC1=NCCCS1`, the AC50 is > 30 µM (inactive).

As to `COc1ccccc1NC(=O)c1cc2ccc(O)cc2o/c1=N\O`, the AC50 was > 30 µM (inactive).

For `Cc1ccnc(NC(=O)CCC(=O)N(CC(=O)NCc2ccc(F)cc2)CC2CCCO2)c1` (configuration not stated), the half-maximal activity concentration (AC50) was 27.9 µM.

On to `COc1cccc(/C=c2\s/c(=C\C(=O)C(C)(C)C)[nH]c2=O)c1`, for which the AC50 is > 30 µM (inactive). The value for `O=C(NCc1ccc2c(c1)OCO2)c1cc(COc2c(F)cccc2F)on1` was > 30 µM (inactive); that for `O=c1cc(-c2ccccc2Cl)oc2c(NS(=O)(=O)c3cc(Cl)cc(Cl)c3O)ccc(O)c12` was > 30 µM (inactive). The result for `CCOc1ccc(S(=O)(=O)c2c(C(=O)c3ccc(C)cc3)cnc3cc4c(cc23)OCCO4)cc1` reads > 30 µM (inactive); that for `CC(C)=CC(=O)NCc1c(Cl)cccc1-n1cccc1`, > 30 µM (inactive). The result for `COc1ccc(OCC(=O)N2CCN(c3nnc(-c4ccc(C)cc4)c4ccccc34)CC2)cc1` reads > 30 µM (inactive); that for `Cc1cc(C)nc(NC(=O)/C=C/c2cccs2)c1`, > 30 µM (inactive); that for `COc1ccc2nc(SCc3nc(N)nc(Nc4ccccc4)n3)[nH]c2c1`, 12.5 µM. Take `COC(=O)C1=C(C)Nc2[nH]c(=S)[nH]c(=O)c2C1c1ccc(O)cc1` (configuration not stated): the AC50 is > 30 µM (inactive). Consider `O=C(Nc1nccs1)C1CCN(S(=O)(=O)c2cnc[nH]2)CC1`, for which the AC50 is > 30 µM (inactive). The value for `Cc1cc(C)n(CCC(=O)N=Nc2c(O)[nH]c3ccc(Br)cc23)n1` was 11.5 µM; that for `CC(C)CN(C(=O)CN1CC=C(c2ccccc2)CC1)c1c(N)n(CC(C)C)c(=O)[nH]c1=O` was > 30 µM (inactive); that for `Cc1cc2nc(-c3cccnc3SCC(=O)NC(C)C)[nH]c2cc1C` was > 30 µM (inactive). Regarding `COc1cc2c(C#N)c(N3CCCCC3)nc(N)c2c(N)n1`, the concentration at half-maximal activity (AC50) was 13.4 µM. The result for `COc1ccc(NC(=O)Nc2cc(F)ccc2C)cc1` reads > 30 µM (inactive). The result for `CC1=C(C(=O)OCc2ccccc2)C(c2cccc(F)c2)NC(=O)N1` (configuration not stated) reads > 30 µM (inactive); that for `Nc1nonc1-n1nnc(C(=O)N/N=C/c2ccc(Cl)cc2Cl)c1CN1CCOCC1`, > 30 µM (inactive). The result for `CC(=O)C1C(c2ccc(C)cc2)c2c(n[nH]c2C)CC1(C)O` (configuration not stated) reads > 30 µM (inactive).

For `Cc1ccc2c(c1)COc1c3ccc(C(=O)N4CCCCC4)cc3nn1-2`, the AC50 was > 30 µM (inactive). The value for `O=[N+]([O-])c1ccc(COc2ccccc2/C=N/O)cc1` was > 30 µM (inactive); that for `COc1ccc(-c2cc(C(=O)N3CCN(c4ccccc4OC)CC3)no2)cc1` was > 30 µM (inactive). The value for `CCOC(=O)C1=C(c2ccccc2)Nc2ncnn2C1c1cccc(O)c1` (configuration not stated) was 22.9 µM. Take `COc1ccc(-c2nc(N)ncc2-c2ccc(OC)c(OC)c2)c(O)c1`: the AC50 is 29.2 µM. The result for `CC(=O)Nc1ccc(Oc2ccc3c(c2)C(=O)NC3=O)cc1` reads 25 µM; that for `CC1(C)Cc2c(sc3nn[nH]c(=O)c23)CO1`, > 30 µM (inactive). On to `CC(=O)c1sc(NC(=O)CN2C(=O)NC3(CCCC3)C2=O)nc1-c1ccccc1`, for which the AC50 is 20.7 µM. The result for `COc1ccc(-c2cc(C(=O)N3CCN(c4ccccc4OC)CC3)no2)cc1OC` reads > 30 µM (inactive). The value for `Oc1ccc2oc3c(c2c1C=NCc1ccncc1)CCCC3` was > 30 µM (inactive). The result for `CCOc1ccc2nc(NC(=O)CSc3ccccc3)sc2c1` reads > 30 µM (inactive); that for `Cc1cc2[nH]c(=S)[nH]c2cc1C`, > 30 µM (inactive); that for `N#Cc1c2c(c(NCc3ccco3)n3c1nc1ccccc13)CCC2`, > 30 µM (inactive).

In the case of `O=C(O)c1cccc(Nc2nc(-c3cccnc3)nc3ccccc23)c1`, the concentration at half-maximal activity (AC50) is 12.5 µM.

As to `Cc1ccc(C(=O)N/C(=C/c2ccc(-c3cccc([N+](=O)[O-])c3)o2)C(=O)NC(C)C)cc1`, the AC50 was > 30 µM (inactive). The result for `Nc1c(C(=O)NCc2ccco2)c2nc3ccccc3nc2n1CCN1CCOCC1` reads > 30 µM (inactive); that for `COc1cccc(-c2c(C(=O)N/N=C(\C)c3cccs3)nnn2-c2nonc2N)c1`, 1.61 µM. The value for `CC(C)(C)OC(=O)N1CCC(NC(=O)c2nc[nH]c2C(=O)NC2CCN(C(=O)OC(C)(C)C)CC2)CC1` was > 30 µM (inactive). The result for `COc1cc2sc(C)nc2c2ccccc12` reads > 30 µM (inactive); that for `COc1ccc(C(=O)C[n+]2cccc(Br)c2)cc1`, > 30 µM (inactive). For the molecule `Clc1ccccc1C1=Nn2c(nnc2-c2ccco2)SC1`, the AC50 was 30.4 µM. The result for `COC(=O)C1=C(C)N(C)C(=O)/C1=C\c1ccco1` reads > 30 µM (inactive); that for `COc1ccccc1N1C(=O)C2C(c3ccc(F)cc3)NN(C(=O)c3ccc(C)cc3)C2C1=O` (configuration not stated), > 30 µM (inactive); that for `NS(=O)(=O)c1ccc(Nc2nc(-c3ccc(F)cc3)cs2)cc1`, 26.2 µM.

For the molecule `COc1cc(C2C(C#N)=C(N)Oc3n[nH]c(-c4cccs4)c32)cc(OC)c1O` (configuration not stated), the AC50 is > 30 µM (inactive). The value for `CCSc1ccccc1C(=O)Nc1cccnc1` was > 30 µM (inactive); that for `S=C(Nc1cccnc1)Nc1cccc2cnccc12` was > 30 µM (inactive). Take `O=C(O)c1cn(-c2ccccc2)nc1-c1cccnc1`: the AC50 is > 30 µM (inactive). The result for `CCN(CC)CCOc1ccc2c(c1)C(=NNC(=O)c1ccccn1)c1cc(OCCN(CC)CC)ccc1-2` reads > 30 µM (inactive); that for `c1ccc2c(c1)c1ccccc1n1c(-c3ccc4c(c3)OCO4)nnc21`, > 30 µM (inactive). Regarding `Cc1ccc2oc(=O)c3cnn(CC(=O)N4CCCCC4C)c3c2c1` (configuration not stated), the AC50 was > 30 µM (inactive). The result for `O=C(c1ccco1)N(Cc1cccc([N+](=O)[O-])c1)c1ccc(Br)cc1` reads > 30 µM (inactive); that for `COc1ccccc1Nc1nc(Cl)c(C=O)s1`, > 30 µM (inactive).

Take `COc1ccc(-n2c(C)c([N+](=O)[O-])c3ccc(O)c(CN(C)C)c32)cc1`: the half-maximal activity concentration (AC50) is 5.94 µM.

As for `COC(=O)[C@@H](NC(=O)NCc1ccccc1F)C(C)C`, the AC50 is > 30 µM (inactive). The result for `S=C(Nc1ccc2c(c1)OCCO2)Nc1ccccc1Cl` reads > 30 µM (inactive); that for `COc1ccc(CCNc2cc(C)nc(N)n2)cc1OC`, > 30 µM (inactive); that for `O=C(Nc1nnc(-c2ccco2)s1)C1CCCCC1`, > 30 µM (inactive). On to `CC(/C=N/NC(=O)CSc1nc2ccccc2n1C)=C\c1ccco1`, for which the AC50 is > 30 µM (inactive). The value for `O=C(NCCCn1ccnc1)C(=O)NC1CCCCC1` was > 30 µM (inactive).

(Values after PubChem BioAssay AID463203 (Broad Institute, 2010).)
